In ChEMBL document CHEMBL4266064, “B-973, a Novel α7 nAChR Ago-PAM: Racemic and Asymmetric Synthesis, Electrophysiological Studies, and in Vivo Evaluation” (ACS Med Chem Lett, 2018):
Active and inactive are the calls of the source. The rule behind the calls is not given here.

Tests used:
[1] = target: Neuronal acetylcholine receptor subunit alpha-7 (Homo sapiens) (UniProt P36544); experiment: (§1) Positive allosteric modulation of human alpha7 nAChR expressed in Xenopus laevis oocytes assessed as increase in acetyl choline-evoked currents at 100 uM pretreated followed by co-treatment with acetyl choline for 21 secs and subsequent compound washout measured after 181 secs by electrophysiology method; type: cell-based
Sequence of Neuronal acetylcholine receptor subunit alpha-7 (Homo sapiens) (P36544 whole entry): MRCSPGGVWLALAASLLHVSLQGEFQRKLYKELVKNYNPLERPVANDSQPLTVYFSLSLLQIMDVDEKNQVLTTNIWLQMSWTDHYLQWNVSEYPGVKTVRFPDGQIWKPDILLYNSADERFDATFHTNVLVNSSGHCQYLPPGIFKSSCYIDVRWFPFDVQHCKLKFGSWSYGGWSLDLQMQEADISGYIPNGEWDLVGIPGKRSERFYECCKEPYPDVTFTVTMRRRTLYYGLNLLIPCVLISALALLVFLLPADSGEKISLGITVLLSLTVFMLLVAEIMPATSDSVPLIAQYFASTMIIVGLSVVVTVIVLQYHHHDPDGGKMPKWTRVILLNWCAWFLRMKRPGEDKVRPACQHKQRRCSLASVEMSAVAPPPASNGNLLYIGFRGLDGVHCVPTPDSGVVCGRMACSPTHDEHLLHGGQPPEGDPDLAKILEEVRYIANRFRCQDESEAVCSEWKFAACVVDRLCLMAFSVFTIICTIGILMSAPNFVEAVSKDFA

[2] = target: Neuronal acetylcholine receptor subunit alpha-7 (Homo sapiens) (UniProt P36544); experiment: Positive allosteric modulation of human alpha7 nAChR expressed in Xenopus laevis oocytes assessed as increase in acetyl choline-evoked currents at 10 to 100 uM treated for 21 secs followed by compound washout measured after 181 secs by electrophysiology method; type: cell-based
[3] = test system: Mus musculus; experiment: Antinociceptive activity in ip dosed formalin-induced nociception pain ICR mouse model assessed as reduction in time spent licking in hind paw administered 15 mins prior to formalin challenge measured after 20 to 45 mins; type: functional, organism-based
[4] = test system: Mus musculus; experiment: Antinociceptive activity in formalin-induced nociception pain ICR mouse model assessed as reduction in time spent licking in hind paw at 10 mg/kg, ip administered 15 mins prior to formalin challenge measured up to 5 mins in presence of alpha7 nAChR antagonist MLA; type: functional, organism-based
[5] = test system: Mus musculus; experiment: Antinociceptive activity in formalin-induced nociception pain ICR mouse model assessed as reduction in paw edema at 3 to 10 mg/kg, ip administered 15 mins prior to formalin challenge measured after 1 hr by calliper method; type: functional, organism-based
[6] = target: Neuronal acetylcholine receptor subunit alpha-7 (Homo sapiens) (UniProt P36544); experiment: as §1, with “10” for “100”; type: cell-based
[7] = test system: Mus musculus; experiment: Antinociceptive activity in formalin-induced nociception pain ICR mouse model assessed as reduction in time spent licking in hind paw at 10 mg/kg, ip administered 15 mins prior to formalin challenge measured after 20 to 45 mins in presence of alpha7 nAChR antagonist MLA; type: functional, organism-based
[8] = test system: Mus musculus; experiment: Antinociceptive activity in formalin-induced nociception pain ICR mouse model assessed as reduction in time spent licking in hind paw at 10 mg/kg, ip administered 15 mins prior to formalin challenge measured up to 5 mins; type: functional, organism-based

C[C@@H](NC(=O)CCc1ccc(F)c(F)c1)c1cncc(N2CCN(c3ccccn3)CC2)n1
Activity [1]: inactive | Activity [2]: inactive

C[C@H](NC(=O)CCc1ccc(F)c(F)c1)c1cncc(N2CCN(c3ccccn3)CC2)n1
Activity [3]: Dose-dependent effect | Activity [4]: inactive | Activity [5]: Active | Activity [6]: Active | Activity [1]: Active | Activity [2]: Active | Activity [7]: inactive | Activity [8]: Active
